US9686994B2, “Use of ALS inhibitor herbicides for control of unwanted vegetation in ALS inhibitor herbicide tolerant beta vulgaris plants” (BAYER CROPSCIENCE AG, priority 2012, dated 2017)
“Also recorded” adds a separate entry of the source.

How the values were obtained:
[1] = tested on: mutated sugar beet plants comprising SEQ.ID.NO:3 and SEQ.ID.NO:5 (on two different alleles), Line A; assay: Greenhouse trial: ALS inhibitor treatment of sugar beets in direct comparison, Line A; type: in vivo, Beta vulgaris L. ssp. vulgaris; settings: day 14 after application at BBCH 14; scale 0% no damage to 100% completely killed; g/ha: foramsulfuron 13, iodosulfuron-methyl-Na 3.5, amidosulfuron 15, thiencarbazone-methyl 7.5, Bisbyribac-Na 50, metosulam 15
Description: (§1) Mutated sugar beet plants comprising SEQ.ID.NO:3 and SEQ.ID.NO:5 (on two different alleles) for use in the context of the present invention (as described in Example 4 above, “Line A”) were treated with different ALS inhibitors in direct comparison with sugar beet plants where the tryptophan at position 569 of the encoded ALS enzyme is substituted by a leucine (“Line B”), with sugar beet plants described in WO 98/02527 where the proline at position 188 of the encoded ALS enzyme is substituted by a serine (“Line C”), and a traditional variety (wild-type) sugar beet plant not having a mutation at positions 569 and 188 (“Line WT”).
(§2) Several groups of seeds of the four different mentioned sugar beet plants were sown separately in the greenhouse and grew up to stage BBCH 14 for Beta vulgaris L. ssp. vulgaris (i.e. 4 leaves (the second pair) unfolded) according to the BBCH monograph “Growth stages of mono- and dicotyledonous plants”, 2nd edition, 2001, ed. Uwe Meier, Federal Biological Research Centre for Agriculture and Forestry (Biologische Bundesanstalt für Land and Forstwirtschaft). Subsequently, the resulting separate groups of sugar beet plants were each individually treated with an ALS inhibitor (ALS-in) in the amounts (g/ha) indicated in Table 1.
(§3) On day 14 after application of the respective ALS inhibitor, the damage (i.e. the phytotoxicity) for each group of sugar beet plants was rated on a stratified scale from 0% (i.e. no damage, no phytotoxicity) to 100% (i.e. the plants were completely killed).

[2] = tested on: sugar beet plants where the tryptophan at position 569 of the encoded ALS enzyme is substituted by a leucine, Line B; assay: Greenhouse trial: ALS inhibitor treatment of sugar beets in direct comparison, Line B; type: in vivo, Beta vulgaris L. ssp. vulgaris; settings: day 14 after application at BBCH 14; scale 0% no damage to 100% completely killed; g/ha: foramsulfuron 13, iodosulfuron-methyl-Na 3.5, amidosulfuron 15, thiencarbazone-methyl 7.5, Bisbyribac-Na 50, metosulam 15
Description: as §1, §2, §3

[3] = tested on: sugar beet plants where the proline at position 188 of the encoded ALS enzyme is substituted by a serine, Line C; assay: Greenhouse trial: ALS inhibitor treatment of sugar beets in direct comparison, Line C; type: in vivo, Beta vulgaris L. ssp. vulgaris; settings: day 14 after application at BBCH 14; scale 0% no damage to 100% completely killed; g/ha: foramsulfuron 13, iodosulfuron-methyl-Na 3.5, amidosulfuron 15, thiencarbazone-methyl 7.5, Bisbyribac-Na 50, metosulam 15
Description: as §1, §2, §3

[4] = tested on: traditional variety (wild-type) sugar beet plant not having a mutation at positions 569 and 188, Line WT; assay: Greenhouse trial: ALS inhibitor treatment of sugar beets in direct comparison, Line WT; type: in vivo, Beta vulgaris L. ssp. vulgaris; settings: day 14 after application at BBCH 14; scale 0% no damage to 100% completely killed; g/ha: foramsulfuron 13, iodosulfuron-methyl-Na 3.5, amidosulfuron 15, thiencarbazone-methyl 7.5, Bisbyribac-Na 50, metosulam 15
Description: as §1, §2, §3

[5] = tested on: regenerated sugar beet plants having the mutated SEQ.ID.NO:3 (heterozygote for this mutation); assay: Example 3: ALS inhibitor treatment of sugar beets, heterozygote mutant; type: in vivo; settings: for resistance of the (heterozygote) mutated plants to the herbicide: foramsulfuron 12.5 g/ha, amidosulfuron 15 g/ha, iodosulfuron 3.5 g/ha, thiencarbazone-methyl 7.5 g/ha, up to 3 applications
From the text: (§4) The behaviour of regenerated sugar beet plants having the mutated SEQ.ID.NO:3 (heterozygote for this mutation) and a wild-type sugar beet commercial variety was compared.

[6] = tested on: wild-type sugar beet commercial variety; assay: Example 3: ALS inhibitor treatment of sugar beets, wild type; type: in vivo; settings: foramsulfuron 12.5 g/ha, amidosulfuron 15 g/ha, iodosulfuron 3.5 g/ha, thiencarbazone-methyl 7.5 g/ha; with or without rapeseed oil methyl ester
From the text: as §4

[7] = tested on: dual mutant sugar beet plant comprising SEQ.ID.NO:3 and SEQ.ID.NO:5 (NCIMB 42050); assay: Example 4: ALS inhibitor treatment of sugar beets having further mutations in the ALS gene; type: in vivo; settings: compared with the single mutant (position 569); even when put in composition with organic compounds
From the text: Subsequently, a mutated sugar beet plant was developed comprising SEQ.ID.NO:3 and SEQ.ID.NO:5 (on two different alleles). Such resulting dual mutant has been deposited under the Budapest Treaty under NCIMB 42050. A plant comprising both SEQ.ID.NO:3 and SEQ.ID.NO:5 can be generated by relying on several techniques, including, for instance, a subsequent mutagenesis step applied to the single mutant NCIMB 42051.
Then the resistance of this dual mutant plant (a mutation in one allele at amino acid 569 and a mutation in the other allele at amino acid 188) was compared with the single mutant (a mutation at position 569) sugar beet.

SMILES: COc1cc(OC)nc(NC(=O)NS(=O)(=O)N(C)S(C)(=O)=O)n1 [Amidosulfuron, amidosulfuron]
- damage (phytotoxicity), average rating, Line A [1]: 6.3%
- damage (phytotoxicity), average rating, Line B [2]: 37.5%
- damage (phytotoxicity), average rating, Line C [3]: 51.9%
- damage (phytotoxicity), average rating, Line WT [4]: 73.1%
- resistance of the (heterozygote) mutated plants to the herbicide [5]: same level of resistance
- sensitivity of the wild-type plant to the herbicide [6]: very sensitive
- resistance of the dual mutant plant to the herbicide [7]: good resistance

SMILES: COc1cc(OC)nc(Oc2cccc(Oc3nc(OC)cc(OC)n3)c2C(=O)O)n1 [Bisbyribac-Na, bispyribac-sodium]
- damage (phytotoxicity), average rating, Line A [1]: 17.5%
- damage (phytotoxicity), average rating, Line B [2]: 38.1%
- damage (phytotoxicity), average rating, Line C [3]: 71.7%
- damage (phytotoxicity), average rating, Line WT [4]: 80.0%

SMILES: COc1cc(OC)nc(NC(=O)NS(=O)(=O)c2cc(NC=O)ccc2C(=O)N(C)C)n1 [Foramsulfuron, foramsulfuron]
- damage (phytotoxicity), average rating, Line A [1]: 26.9%
- damage (phytotoxicity), average rating, Line B [2]: 45.6%
- damage (phytotoxicity), average rating, Line C [3]: 77.5%
- damage (phytotoxicity), average rating, Line WT [4]: 80.0%
- resistance of the (heterozygote) mutated plants to the herbicide [5]: good resistance; also recorded: best resistance
- sensitivity of the wild-type plant to the herbicide [6]: very sensitive

SMILES: COC(=O)c1ccc(I)cc1S(=O)(=O)[N-]C(=O)Nc1nc(C)nc(OC)n1.[Na+] [Iodosulfuron-methyl-Na, iodosulfuron-methyl-sodium]
- damage (phytotoxicity), average rating, Line A [1]: 22.5%
- damage (phytotoxicity), average rating, Line B [2]: 38.8%
- damage (phytotoxicity), average rating, Line C [3]: 80.0%
- damage (phytotoxicity), average rating, Line WT [4]: 82.5%

SMILES: COc1cc(OC)n2nc(S(=O)(=O)Nc3c(Cl)ccc(C)c3Cl)nc2n1 [Metosulam, metosulam]
- damage (phytotoxicity), average rating, Line A [1]: 13.1%
- damage (phytotoxicity), average rating, Line B [2]: 40.6%
- damage (phytotoxicity), average rating, Line C [3]: 69.4%
- damage (phytotoxicity), average rating, Line WT [4]: 79.4%

SMILES: COC(=O)c1csc(C)c1S(=O)(=O)NC(=O)n1nc(OC)n(C)c1=O [Thiencarbazone-methyl, thiencarbazone-methyl]
- damage (phytotoxicity), average rating, Line A [1]: 8.1%
- damage (phytotoxicity), average rating, Line B [2]: 35.6%
- damage (phytotoxicity), average rating, Line C [3]: 37.5%
- damage (phytotoxicity), average rating, Line WT [4]: 84.4%
- resistance of the (heterozygote) mutated plants to the herbicide [5]: about the same level of resistance as for iodosulfuron
- sensitivity of the wild-type plant to the herbicide [6]: very sensitive
- resistance of the dual mutant plant to the herbicide [7]: good resistance

SMILES: COc1nc(C)nc(NC(=O)NS(=O)(=O)c2cc(I)ccc2C(=O)O)n1 [iodosulfuron]
- resistance of the (heterozygote) mutated plants to the herbicide [5]: good level of resistance
- resistance of the (heterozygote) mutated plants, herbicide applied together with the organic compound ([5]; iodosulfuron 3.5 g/ha with 25 g/ha rapeseed oil methyl ester): resistance declined
- sensitivity of the wild-type plant to the herbicide [6]: very sensitive
